Our source for the IC50 values is patent US20260085067A1, “CYCLIC SULFONAMIDE RIBONUCLEOTIDE REDUCTASE (RNR) INHIBITORS AND USES THEREOF” (Boundless Bio, Inc., priority 2022, published 2026).

Assay [1] has as its target T1, RNR (RNR1:RNR2 1:1) (Homo sapiens, UniProt P23921).
T1 sequence (P23921 1-792): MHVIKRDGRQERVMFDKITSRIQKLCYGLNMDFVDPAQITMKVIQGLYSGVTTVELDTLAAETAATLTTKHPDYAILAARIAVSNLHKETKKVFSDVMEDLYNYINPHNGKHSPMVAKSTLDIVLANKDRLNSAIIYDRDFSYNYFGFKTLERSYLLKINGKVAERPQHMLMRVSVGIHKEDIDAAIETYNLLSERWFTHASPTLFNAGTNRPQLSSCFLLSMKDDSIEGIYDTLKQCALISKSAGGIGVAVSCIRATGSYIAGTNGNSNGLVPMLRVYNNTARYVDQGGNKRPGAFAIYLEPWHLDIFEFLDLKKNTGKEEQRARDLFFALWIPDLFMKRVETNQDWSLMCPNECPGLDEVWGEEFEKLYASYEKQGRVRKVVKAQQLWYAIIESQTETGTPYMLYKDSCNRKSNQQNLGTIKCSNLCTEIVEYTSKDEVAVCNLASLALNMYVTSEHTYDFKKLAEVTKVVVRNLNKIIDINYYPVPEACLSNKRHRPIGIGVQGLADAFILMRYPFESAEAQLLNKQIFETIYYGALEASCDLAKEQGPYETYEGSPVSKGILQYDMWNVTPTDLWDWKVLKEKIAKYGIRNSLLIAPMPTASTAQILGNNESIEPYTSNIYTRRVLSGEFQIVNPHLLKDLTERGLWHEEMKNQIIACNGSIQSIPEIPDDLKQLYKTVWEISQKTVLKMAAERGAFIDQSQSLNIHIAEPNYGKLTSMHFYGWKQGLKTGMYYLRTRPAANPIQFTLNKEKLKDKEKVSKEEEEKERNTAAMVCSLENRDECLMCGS
Nature of the assay: RNR enzyme activity, rapid-fire mass spectrometry (RF/MS) assay. Particulars: [RNR] 50 nM, 1:1 RNR1:RNR2; CDP 5 μM; ATP 1 mM; 37° C., 45 min; compounds screened up to 50 μM. In kind it is biochemical. The protocol:
A rapid-fire mass spectrometry (RF/MS) assay was used to assess RNR enzyme activity using a 384 well plate and a robotic platform.
The plate layout included two validated reference compounds (Triapine (3-AP) and Hydroxyurea (HU)): • A dose response in duplicate; top concentration: 5 μM (3-AP) and 250 μM (HU), semi-log dilutions. • Spike wells in triplicate randomly spotted at four concentrations: • 250 μM, 100 μM, 30 μM and 2 μM for HU • 5 μM, 2 μM, 0.6 μM and 0.04 μM for 3-AP
First, the multidrop pipes were saturated for 30 minutes with enzymatic solution. Then 30 μL of Stop solution was distributed in column 24. Next, 15 μL of enzyme was distributed in column 1 to 24. Next, a pre-incubation step of 15 minutes at room temperature occurred, followed by distribution of 15 μL of substrate solution (column 1 to 24). Next, the plate was incubated for 45 minutes at 37° C. 30 μL of Stop solution was then distributed to columns 1 to 23.
The final parameters for the enzyme reactions were: • Incubation: 37° C., 45 min • [CDP]: 5 μM; [ATP]: 1 mM; [NADPH]: No • [RNR]final: 50 nM with 1:1 (RNR1:RNR2) ratio • Final volume: 30 μL • Stop solution: 6% HCOOH in water

For assay [2], the system named is pCHK1 (S345) in Colo320 DM cells. As to the kind of experiment: Alphalisa assay, detection of pCHK1 (S345) in Colo320 DM cells. Particulars: Homo sapiens, COLO 320DM, compound overnight (approximately 16 hours). In kind it is cell-based, human. The procedure, abridged: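 Phospho-CHK1 (S345) read by AlphaLisa SureFire in lysates of human colorectal Colo320 DM cells. Compound treatment ran overnight (~16 h, 37 °C, DMSO <0.5%) on cells seeded the day before.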
Background: In Alpha technology, singlet oxygen from a donor bead excites a nearby acceptor bead.

As a reminder, the IC50 is the concentration that gives 50% inhibition. Low values mean greater potency, high ones weaker potency.

Where only a bound is given, the exact number is not on record here.

On to `Cc1ccc(F)c([C@@H](C)[C@@H](c2n[nH]c(=O)o2)N2CN(C3CCOCC3)c3cc(Cl)ccc3S2(=O)=O)c1C` [Example 33, 5-((1S,2R)-1-(6-chloro-1,1-dioxido-4-(tetrahydro-2H-pyran-4-yl)-3,4-dihydro-2H-benzo[e][1,2,4]thiadiazin-2-yl)-2-(6-fluoro-2,3-dimethylphenyl)propyl)-1,3,4-oxadiazol-2 (3H)-one], for which the IC50 in assay [1] is below 20 nM; in assay [2], at most 1000 nM.

With `Cc1ccc(F)c([C@@H](C)[C@@H](c2n[nH]c(=O)o2)N2CN(CCCN(C)C)c3cc(Cl)ccc3S2(=O)=O)c1C` [Example 34, 5-((1S,2R)-1-(6-chloro-4-(3-(dimethylamino)propyl)-1,1-dioxido-3,4-dihydro-2H-benzo[e][1,2,4]thiadiazin-2-yl)-2-(6-fluoro-2,3-dimethylphenyl)propyl)-1,3,4-oxadiazol-2 (3H)-one], the IC50 in assay [1] is below 20 nM; in assay [2] it was 1000 to 5000 nM.

For `Cc1ccc(F)c([C@@H](C)[C@@H](c2n[nH]c(=O)o2)N2CN(C)C(=O)c3cc(Cl)ccc3S2(=O)=O)c1C` [Example 35, 5-((1S,2R)-1-(7-chloro-4-methyl-1,1-dioxido-5-oxo-4,5-dihydrobenzo[f][1,2,4]thiadiazepin-2 (3H)-yl)-2-(6-fluoro-2,3-dimethylphenyl)propyl)-1,3,4-oxadiazol-2 (3H)-one], the values for the IC50 in assay [1] and in assay [2] were 20 to 100 nM and 10000 to 50000 nM, respectively.

`Cc1ccc(F)c([C@@H](C)[C@@H](c2n[nH]c(=O)o2)N2CCOc3c(ccc(Cl)c3C)S2(=O)=O)c1C` [Example 36, 5-((1S,2R)-1-(7-chloro-6-methyl-1,1-dioxido-3,4-dihydro-2H-benzo[b][1,4,5]oxathiazepin-2-yl)-2-(6-fluoro-2,3-dimethylphenyl)propyl)-1,3,4-oxadiazol-2 (3H)-one]: the results for the IC50 in assay [1] and in assay [2] were below 20 nM and 1000 to 5000 nM, respectively.

For the molecule `Cc1ccc(F)c([C@@H](C)[C@@H](c2n[nH]c(=O)o2)N2CN(C)c3cc(Cl)cc(C(=O)N(C)C)c3S2(=O)=O)c1C` [Example 37, 6-chloro-2-((1S,2R)-2-(6-fluoro-2,3-dimethylphenyl)-1-(5-oxo-4,5-dihydro-1,3,4-oxadiazol-2-yl)propyl)-N,N,4-trimethyl-3,4-dihydro-2H-benzo[e][1,2,4]thiadiazine-8-carboxamide 1,1-dioxide], the IC50 was 1000 to 10000 nM in assay [1] and above 50000 nM in assay [2].

Consider `Cc1ccc(F)c([C@@H](C)[C@@H](c2n[nH]c(=O)o2)N2CN(CCN(C)C)c3cc(Cl)ccc3S2(=O)=O)c1C` [Example 38, 5-((1S,2R)-1-(6-chloro-4-(2-(dimethylamino)ethyl)-1,1-dioxido-3,4-dihydro-2H-benzo[e][1,2,4]thiadiazin-2-yl)-2-(6-fluoro-2,3-dimethylphenyl)propyl)-1,3,4-oxadiazol-2 (3H)-one], for which the IC50 was below 20 nM in assay [1] and at most 1000 nM in assay [2].

As for `Cc1ccc(F)c([C@H](C)[C@@H](c2n[nH]c(=O)o2)N2CN(C)c3cc(Cl)cc(C(=O)N(C)C)c3S2(=O)=O)c1C` [Example 39], the half-inhibitory concentration (IC50) in assay [1] was 10000 to 100000 nM; in assay [2], above 50000 nM.

`Cc1ccc(F)c(C(C)[C@@H](c2n[nH]c(=O)o2)N2CCOc3c(ccc(Cl)c3C(C)(C)O)S2(=O)=O)c1C` (stereo partly drawn) [Example 40, 5-((1S)-1-(7-chloro-6-(2-hydroxypropan-2-yl)-1,1-dioxido-3,4-dihydro-2H-benzo[b][1,4,5]oxathiazepin-2-yl)-2-(6-fluoro-2,3-dimethylphenyl)propyl)-1,3,4-oxadiazol-2 (3H)-one]: the IC50 in assay [1] was below 20 nM; in assay [2], 5000 to 10000 nM.

Take `Cc1ccc(F)c([C@@H](C)[C@@H](c2n[nH]c(=O)o2)N2COc3cc(Cl)cc(C(=O)N(C)C)c3S2(=O)=O)c1C` [Example 41, 6-chloro-2-((1S,2R)-2-(6-fluoro-2,3-dimethylphenyl)-1-(5-oxo-4,5-dihydro-1,3,4-oxadiazol-2-yl)propyl)-N,N-dimethyl-2,3-dihydrobenzo[e][1,4,3]oxathiazine-8-carboxamide 1,1-dioxide]: the IC50 in assay [1] was 100 to 1000 nM; in assay [2] it was above 50000 nM.

As to `Cc1ccc(F)c([C@@H](C)[C@@H](c2n[nH]c(=O)o2)N2CN(C3COC3)c3cc(Cl)ccc3S2(=O)=O)c1C` [Example 42, 5-((1S,2R)-1-(6-chloro-4-(oxetan-3-yl)-1,1-dioxido-3,4-dihydro-2H-benzo[e][1,2,4]thiadiazin-2-yl)-2-(6-fluoro-2,3-dimethylphenyl)propyl)-1,3,4-oxadiazol-2 (3H)-one], the figures for the IC50 in assay [1] and in assay [2] were below 20 nM and at most 1000 nM, respectively.

For the molecule `COCCN1CN([C@H](c2n[nH]c(=O)o2)[C@H](C)c2c(F)ccc(C)c2C)S(=O)(=O)c2ccc(Cl)cc21` [Example 45, 5-((1S,2R)-1-(6-chloro-4-(2-methoxyethyl)-1,1-dioxido-3,4-dihydro-2H-benzo[e][1,2,4]thiadiazin-2-yl)-2-(6-fluoro-2,3-dimethylphenyl)propyl)-1,3,4-oxadiazol-2 (3H)-one], the values for the IC50 in assay [1] and in assay [2] were below 20 nM and at most 1000 nM, respectively.

For `Cc1ccc(F)c([C@@H](C)[C@@H](c2n[nH]c(=O)o2)N2CN(C(=O)C3CC3)c3cc(Cl)ccc3S2(=O)=O)c1C` [Example 46, 5-((1S,2R)-1-(6-chloro-4-(cyclopropanecarbonyl)-1,1-dioxido-3,4-dihydro-2H-benzo[e][1,2,4]thiadiazin-2-yl)-2-(6-fluoro-2,3-dimethylphenyl)propyl)-1,3,4-oxadiazol-2 (3H)-one], the figures for the IC50 in assay [1] and in assay [2] were below 20 nM and at most 1000 nM, respectively.

Consider `Cc1ccc(F)c([C@@H](C)[C@@H](c2n[nH]c(=O)o2)N2CN(C3CCN(C)CC3)c3cc(Cl)ccc3S2(=O)=O)c1C` [Example 47, 5-((1S,2R)-1-(6-chloro-4-(1-methylpiperidin-4-yl)-1,1-dioxido-3,4-dihydro-2H-benzo[e][1,2,4]thiadiazin-2-yl)-2-(6-fluoro-2,3-dimethylphenyl)propyl)-1,3,4-oxadiazol-2 (3H)-one], for which the results for the IC50 in assay [1] and in assay [2] were below 20 nM and 1000 to 5000 nM, respectively.

Regarding `Cc1ccc(F)c([C@@H](C)[C@@H](c2n[nH]c(=O)o2)N2CN(CC3CCOC3)c3cc(Cl)ccc3S2(=O)=O)c1C` (stereo partly drawn) [Example 49, 5-((1S,2R)-1-(6-chloro-1,1-dioxido-4-((tetrahydrofuran-3-yl)methyl)-3,4-dihydro-2H-benzo[e][1,2,4]thiadiazin-2-yl)-2-(6-fluoro-2,3-dimethylphenyl)propyl)-1,3,4-oxadiazol-2 (3H)-one], the IC50 was below 20 nM in assay [1] and at most 1000 nM in assay [2].

Take `Cc1ccc(F)c([C@@H](C)[C@@H](c2n[nH]c(=O)o2)N2CN(C3CCCN(C)C3)c3cc(Cl)ccc3S2(=O)=O)c1C` (stereo partly drawn) [Example 51, 5-((1S,2R)-1-(6-chloro-4-(1-methylpiperidin-3-yl)-1,1-dioxido-3,4-dihydro-2H-benzo[e][1,2,4]thiadiazin-2-yl)-2-(6-fluoro-2,3-dimethylphenyl)propyl)-1,3,4-oxadiazol-2 (3H)-one]: the IC50 in assay [1] is below 20 nM; in assay [2] it was at most 1000 nM.

Turning to `Cc1ccc(F)c([C@@H](C)[C@@H](c2n[nH]c(=O)o2)N2CN(C[C@H]3CCCO3)c3cc(Cl)ccc3S2(=O)=O)c1C` [Example 52, 5-((1S,2R)-1-(6-chloro-1,1-dioxido-4-(((R)-tetrahydrofuran-2-yl)methyl)-3,4-dihydro-2H-benzo[e][1,2,4]thiadiazin-2-yl)-2-(6-fluoro-2,3-dimethylphenyl)propyl)-1,3,4-oxadiazol-2 (3H)-one], the IC50 is below 20 nM in assay [1] and at most 1000 nM in assay [2].
